First: CC(C)(C)OC(=O)N[C@H](CCc1ccccc1)c1nc(-c2ccccc2)c[nH]1 [Example 129, tert-butyl (1R)-3-phenyl-1-(4-phenyl-1H-imidazol-2-yl)propylcarbamate]
Second: CC(C)(C)OC(=O)N[C@H](CCc1ccccc1)c1nc(-c2ccc(-c3ccccc3)cc2)c[nH]1 [Example 167, 4-(2-{(1R)-1-[(tert-butoxycarbonyl)amino]-3-phenylpropyl}-1H-imidazol-4-yl)-1,1′-biphenyl]
The melting point of the first is lower: 72 to 74 °C for the first, 154 to 156 °C for the second.

First: CC(C)(C)OC(=O)N[C@H](CC1CCCCC1)c1nc(-c2ccccc2)c[nH]1 [Example 130, tert-butyl (1R)-2-cyclohexyl-1-(4-phenyl-1H-imidazol-2-yl)ethylcarbamate]
Second: CC(C)(C)OC(=O)N[C@H](CC1CCCCC1)c1nc(-c2ccc(-c3ccccc3)cc2)c[nH]1 [Example 150, 4-(2-{(1R)-1-[(tert-butoxycarbonyl)amino]-2-cyclohexylethyl}-1H-imidazol-4-yl)-1,1′-biphenyl]
The melting point of the first is higher: 184 to 185 °C for the first, 112 to 114 °C for the second.

First: c1ccc(CN[C@H](CC2CCCCC2)c2nc(-c3ccccc3)c[nH]2)cc1 [Example 134, (1R)-N-benzyl-2-cyclohexyl-1-(4-phenyl-1H-imidazol-2-yl)ethanamine]
Second: c1ccc(CN[C@H](CC2CCCCC2)c2nc(-c3ccc(-c4ccccc4)cc3)c[nH]2)cc1 [Example 169, (1R)-N-benzyl-1-(4-[1,1′-biphenyl]-4-yl-1H-imidazol-2-yl)-2-cyclohexylethanamine]
The melting point of the first is lower: 52 to 54 °C for the first, 233 to 238 °C for the second.

First: c1ccc(CC[C@@H](NCc2ccccc2)c2nc(-c3ccccc3)c[nH]2)cc1 [Example 135, (1R)-N-benzyl-3-phenyl-1-(4-phenyl-1H-imidazol-2-yl)-1-propanamine]
Second: c1ccc(CC[C@@H](NCc2ccccc2)c2nc(-c3ccc(-c4ccccc4)cc3)c[nH]2)cc1 [Example 170, (1R)-N-benzyl-1-(4-[1,1′-biphenyl]-4-yl-1H-imidazol-2-yl)-3-phenyl-1-propanamine]
The melting point of the first is lower: 142 to 144 °C for the first, 210 to 213 °C for the second.

Compared with `CC(C)(C)OC(=O)NCc1nc(-c2ccc(-c3ccccc3)cc2)c[nH]1` [Example 137, 4-(2-{[(tert-butoxycarbonyl)amino]methyl}-1H-imidazol-4-yl)-1,1′-biphenyl], `CC(C)(C)OC(=O)NCCc1nc(-c2ccc(-c3ccccc3)cc2)c[nH]1` [Example 152, 4-(2-{2-[(tert-butoxycarbonyl)amino]ethyl}-1H-imidazol-4-yl)-1,1′-biphenyl] is higher in melting point: 100 to 102 °C for the first, 140 to 142 °C for the second.

First: CS(=O)(=O)c1ccc(-c2c[nH]c([C@@H](NC3CCCCC3)C3CCCCC3)n2)cc1 [Example 138, N-{(S)-cyclohexyl[4-(4-methylsulphonylphenyl)-1H-imidazol-2-yl]methyl}cyclohexanamine]
Second: CC[C@H](NC(=O)OC(C)(C)C)c1nc(-c2ccc(-c3ccccc3)cc2)c[nH]1 [Example 194, 4-(2-{(1S)-1-[(tert-butoxycarbonyl)amino]propyl}-1H-imidazol-4-yl)-1,1′-biphenyl]
The melting point of the first is higher: 152 to 154 °C for the first, 138 to 140 °C for the second.

First: CC(C)(NCc1ccccc1)c1nc(-c2ccccc2)c[nH]1 [Example 139, N-benzyl-2-(4-phenyl-1H-imidazol-2-yl)-2-propanamine]
Second: CCC[C@@H](NCc1ccccc1)c1nc(-c2ccccc2)c[nH]1 [Example 214, (1R)-N-benzyl-1-(4-phenyl-1H-imidazol-2-yl)-1-butanamine]
The melting point of the first is lower: 136 to 138 °C for the first, 218 to 220 °C for the second.

Compared with `CC(C)(C)OC(=O)NCc1nc(-c2ccc(-c3ccccc3)cc2)cn1Cc1ccccc1` [Example 140, 4-(1-benzyl-2-{[(tert-butoxycarbonyl)amino]methyl}-1H-imidazol-4-yl)-1,1′-biphenyl], `Cn1cc(-c2ccc(-c3ccccc3)cc2)nc1CNC(=O)OC(C)(C)C` [Example 146, 4-(2-{[(tert-butoxycarbonyl)amino]methyl}-1-methyl-1H-imidazol-4-yl)-1,1′-biphenyl] is higher in melting point: 167 to 169 °C for the first, 208 to 210 °C for the second.

First: c1ccc(CN(Cc2ccccc2)Cc2nc(-c3ccc(-c4ccccc4)cc3)c[nH]2)cc1 [Example 144, N,N-dibenzyl(4-[1,1′-biphenyl]4-yl-1H-imidazol-2-yl)methanamine]
Second: c1ccc(CNCCc2nc(-c3ccc(-c4ccccc4)cc3)c[nH]2)cc1 [Example 164, N-benzyl-2-(4-[1,1′-biphenyl]-4-yl-1H-imidazol-2-yl)ethanamine]
The melting point of the first is lower: 70 to 74 °C for the first, 174 to 176 °C for the second.

Compared with `CC(C)(C)OC(=O)N[C@@H](Cc1c[nH]c2ccccc12)c1nc(-c2ccccc2)c(-c2ccccc2)[nH]1` [Example 147, tert-butyl (1S)-1-(4,5-diphenyl-1H-imidazol-2-yl)-2-(1H-indol-3-yl)ethylcarbamate], `CC[C@H](NC(=O)OC(C)(C)C)c1nc(-c2ccccc2)c(-c2ccccc2)[nH]1` [Example 197, tert-butyl (1S)-1-(4,5-diphenyl-1H-imidazol-2-yl)propylcarbamate] is lower in melting point: 142 to 143 °C for the first, 136 to 138 °C for the second.

Compared with `Cn1cc(-c2ccccc2)nc1[C@@H](Cc1c[nH]c2ccccc12)NC(=O)OC(C)(C)C` [Example 148, tert-butyl (1R)-2-(1H-indol-3-yl)-1-(1-methyl-4-phenyl-1H-imidazol-2-yl)ethylcarbamate], `CCC[C@@H](NC(=O)OC(C)(C)C)c1nc(-c2ccc(-c3ccccc3)cc2)c[nH]1` [Example 208, 4-(2-{(1R)-1-[(tert-butoxycarbonyl)amino]butyl}-1H-imidazol-4-yl)-1,1′-biphenyl] is higher in melting point: 96 to 100 °C for the first, 145.6 °C for the second.

First: CN(Cc1nc(-c2ccc(-c3ccccc3)cc2)c[nH]1)C(=O)OC(C)(C)C [Example 149, 4-(2-{[(tert-butoxycarbonyl)(methyl)amino]methyl}-1H-imidazol-4-yl)-1,1′-biphenyl]
Second: CC(C)(C)OC(=O)NCCCc1nc(-c2ccc(-c3ccccc3)cc2)c[nH]1 [Example 171, 4-(2-{3-[(tert-butoxycarbonyl)amino]propyl}-1H-imidazol-4-yl)-1,1′-biphenyl]
The melting point of the first is lower: 72 to 74 °C for the first, 145 to 146 °C for the second.

First: Cc1[nH]c(CN(C)C(=O)OC(C)(C)C)nc1-c1ccccc1 [Example 153, tert-butyl methyl[(5-methyl-4-phenyl-1H-imidazol-2-yl)methyl]carbamate]
Second: CN(Cc1nc(-c2ccccc2)c(-c2ccccc2)[nH]1)C(=O)OC(C)(C)C [Example 156, tert-butyl (4,5-diphenyl-1H-imidazol-2-yl)methyl(methyl)carbamate]
The melting point of the first is lower: 70 to 72 °C for the first, 170 to 172 °C for the second.

First: CC(C)(C)OC(=O)NCc1nc(-c2ccccc2)c(-c2ccccc2)[nH]1 [Example 157, tert-butyl (4,5-diphenyl-1H-imidazol-2-yl)methylcarbamate]
Second: c1ccc(CNCc2nc(-c3ccccc3)c(-c3ccccc3)[nH]2)cc1 [Example 163, N-benzyl(4,5-diphenyl-1H-imidazol-2-yl)methanamine]
The melting point of the first is lower: 144 to 146 °C for the first, 160 to 162 °C for the second.

First: CC(C)(C)OC(=O)N(Cc1ccccc1)Cc1nc(-c2ccc(-c3ccccc3)cc2)c[nH]1 [Example 165, 4-(2-{[benzyl(tert-butoxycarbonyl)amino]methyl}-1H-imidazol-4-yl)-1,1′-biphenyl]
Second: O=C(NCCc1nc(-c2ccc(-c3ccccc3)cc2)c[nH]1)OCc1ccccc1 [Example 237, 4-[2-(2-{[(benzyloxy)carbonyl]amino}ethyl)-1H-imidazol-4-yl]-1,1′-biphenyl]
The melting point of the first is lower: 130 to 132 °C for the first, 134 to 136 °C for the second.

First: CC(C)(C)NC(=S)NCCc1nc(-c2ccc(-c3ccccc3)cc2)c[nH]1 [Example 172, 4-[2-(2-{[(tert-butylamino)carbothioyl]amino}ethyl)-1H-imidazol-4-yl]-1,1′-biphenyl]
Second: CC(C)(C)NC(=O)NCCc1nc(-c2ccc(-c3ccccc3)cc2)c[nH]1 [Example 177, 4-[2-(2-{[(tert-butylamino)carbonyl]amino}ethyl)-1H-imidazol-4-yl]-1,1′-biphenyl]
The melting point of the first is lower: 98 to 99 °C for the first, 195 to 196 °C for the second.

Compared with `CCCCCCNCCc1nc(-c2ccc(-c3ccccc3)cc2)c[nH]1` [Example 176, N-[2-(4-[1,1′-biphenyl]-4-yl-1H-imidazol-2-yl)ethyl]-1-hexanamine], `CC(C)COC(=O)NCCc1nc(-c2ccc(-c3ccccc3)cc2)c[nH]1` [Example 239, 4-(2-{2-[(isobutoxycarbonyl)amino]ethyl}-1H-imidazol-4-yl)-1,1′-biphenyl] is lower in melting point: 152 to 154 °C for the first, 134 to 135 °C for the second.

First: c1ccc(CNCCCc2nc(-c3ccc(-c4ccccc4)cc3)c[nH]2)cc1 [Example 178, N-benzyl-3-(4-[1,1′-biphenyl]-4-yl-1H-imidazol-2-yl)-1-propanamine]
Second: CC[C@H](NCc1ccccc1)c1nc(-c2ccc(-c3ccccc3)cc2)c[nH]1 [Example 198, (1S)-N-benzyl-1-(4-[1,1′-biphenyl]4-yl-1H-imidazol-2-yl)-1-propanamine]
The melting point of the first is higher: 254 to 256 °C for the first, 220 to 222 °C for the second.

First: CC(C)(C)COC(=O)NCCc1nc(-c2ccc(-c3ccccc3)cc2)c[nH]1 [Example 203, 4-[2-(2-{[(neopentyloxy)carbonyl]amino}ethyl)-1H-imidazol-4-yl]-1,1′-biphenyl]
Second: CCCCOC(=O)NC(C)(C)c1nc(-c2ccc(-c3ccccc3)cc2)c[nH]1 [Example 238, 4-(2-{1-[(butoxycarbonyl)amino]-1-methylethyl}-1H-imidazol-4-yl)-1,1′-biphenyl]
The melting point of the first is lower: 162 to 164 °C for the first, 170 to 172 °C for the second.

First: CC[C@H](NCc1ccccc1)c1nc(-c2ccccc2)c(-c2ccccc2)[nH]1 [Example 204, (1S)-N-benzyl-1-(4,5-diphenyl-1H-imidazol-2-yl)-1-propanamine]
Second: CCC[C@@H](NCc1ccccc1)c1nc(-c2ccc(-c3ccccc3)cc2)c[nH]1 [Example 213, (1R)-N-benzyl-1-(4-[1,1′-biphenyl]-4-yl-1H-imidazol-2-yl)-1-butanamine]
The melting point of the first is higher: 182 to 184 °C for the first, 78.6 °C for the second.

Compound `CCC[C@@H](NC(=O)OC(C)(C)C)c1nc(-c2ccccc2)c[nH]1` [Example 207, tert-butyl (1R)-1-(4-phenyl-1H-imidazol-2-yl)butylcarbamate] has a melting point of 156 to 158 °C.

From patent US7291641B2, “Derivatives of heterocycles with 5 members, their preparation and their use as medicaments” (Societe de Conseils de Recherches et d'Applications …, priority 1999, dated 2007)
